# Measurements taken from article PMC7377239, “Cardiovascular Effects of Polychlorinated Biphenyls and Their Major Metabolites” (Environmental Health Perspectives, 2020).
# Where a name gives a salt, the structure may show the parent alone. Read-outs that look alike come from different tables or passages of the source.
# Columns and labels:
# [1] = tested on: iCell cardiomyocytes (human iPSC-derived cardiomyocytes); assay: High-content imaging of cytotoxicity and mitochondrial integrity in iPSC-CMs; type: cell-based; conditions: for minimal effective concentration: Homo sapiens, Cardiomyocyte, cardiomyocytes (cm)
# How it was run: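 This assay measured cytotoxicity and mitochondrial integrity in iPSC cardiomyocytes held in 40μL maintenance medium. After compound exposure, a 2× staining solution with Hoechst 33342 (4μg/mL) and MitoTracker™ Orange (0.4μM) was applied for 15 min at 37°C. Cells were washed, fixed with 3.7% formaldehyde, imaged on DAPI and Cy3 channels, and scored in MetaXpress®.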
# HUVECs = assay: High-content imaging cytotoxicity in HUVECs, 24 h; type: cell-based, human; conditions: Homo sapiens, HUVEC, 24 h, HUVEC, 24 hr
# How it was run: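 Confluent HUVEC monolayers, passages 1–5, received test chemicals for 24 h. Cytotoxicity was scored from triple-stain high-content images, with PODs defined by a one-SD deviation from 0.5% DMSO vehicle controls.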
# [2] = 1.5 h, cam, 90 min, read-out: POD cm.cam.90min
# [3] = 1.5 h, mii, 90 min, read-out: POD cm.mii.90min
# [4] = 1.5 h, mito, 90 min, read-out: POD cm.mito.90min
# [5] = 1.5 h, tc, 90 min, read-out: POD cm.tc.90min
# [6] = 24 h, cam, 24 hrs, read-out: POD cm.cam.24hrs
# [7] = 24 h, mii, 24 hrs, read-out: POD cm.mii.24hrs
# [8] = 24 h, mito, 24 hrs, read-out: POD cm.mito.24hrs
# [9] = 24 h, tc, 24 hrs, read-out: POD cm.tc.24hrs
# [10] = cyto, read-out: POD huvec.cyto.24hr
# [11] = mito, read-out: POD huvec.mito.24hr
# [12] = mitoint, read-out: POD huvec.mitoint.24hr
# [13] = nma, read-out: POD huvec.nma.24hr
# [14] = tc, read-out: POD huvec.tc.24hr
structure (smiles),measurement,setting,value
"COc1ccc(-c2ccc(Cl)cc2)cc1 [4'-OMe-PCB 3, 4′-methoxy-4-chlorobiphenyl]",minimal effective concentration,[1]; [2],100 µM
same,minimal effective concentration,[1]; [3],100 µM
same,minimal effective concentration,[1]; [4],100 µM
same,minimal effective concentration,[1]; [5],100 µM
same,minimal effective concentration,[1]; [6],82.9 µM
same,minimal effective concentration,[1]; [7],100 µM
same,minimal effective concentration,[1]; [8],100 µM
same,minimal effective concentration,[1]; [9],100 µM
same,effect on cell viability in iPSC-CMs,"[1]; iPSC-CMs, 0.01-100 μM, 90 min and 24 h",little effect on cell viability
same,minimal effective concentration,HUVECs; [10],8.6 µM
same,minimal effective concentration,HUVECs; [11],5.97 µM
same,minimal effective concentration,HUVECs; [12],32 µM
same,minimal effective concentration,HUVECs; [13],1.41 µM
same,minimal effective concentration,HUVECs; [14],8.6 µM
O=S(=O)(O)Oc1ccc(-c2ccc(Cl)cc2)cc1 [4'-PCB 3 sulfate],minimal effective concentration,[1]; [2],100 µM
same,minimal effective concentration,[1]; [3],100 µM
same,minimal effective concentration,[1]; [4],100 µM
same,minimal effective concentration,[1]; [5],100 µM
same,minimal effective concentration,[1]; [6],100 µM
same,minimal effective concentration,[1]; [7],53.5 µM
same,minimal effective concentration,[1]; [8],100 µM
same,minimal effective concentration,[1]; [9],100 µM
same,minimal effective concentration,HUVECs; [10],100 µM
same,minimal effective concentration,HUVECs; [11],100 µM
same,minimal effective concentration,HUVECs; [12],100 µM
same,minimal effective concentration,HUVECs; [13],100 µM
same,minimal effective concentration,HUVECs; [14],100 µM
